Reference: patent US12240838B2, “Inhibiting agents for Bruton's tyrosine kinase” (BIOGEN MA INC., priority 2019, dated 2025)

How the values were obtained:
[1] = target: T1, BTK (Homo sapiens (Human), UniProt Q06187); test: In Vitro BTK Kinase Assay: BTK-POLYGAT-LS ASSAY; type: biochemical; conditions: ATP 10 μM, polyGAT 100 nM, BTK 0.25 nM, 30 minutes
Procedure: The purpose of the BTK in vitro assay is to determine compound potency against BTK through the measurement of IC50. […] The BTK kinase reaction was done in a black 96 well plate (costar 3694). For a typical assay, a 24 μL aliquot of a ATP/peptide master mix (final concentration; ATP 10 μM, polyGAT 100 nM) in kinase buffer (10 mM Tris-HCl pH 7.5, 10 mM MgCl2, 200 μM […], 5 mM DTT, 0.01% Triton X-100, and 0.2 mg/ml casein) is added to each well. Next, […] of a 4-fold, 40× compound titration in 100% DMSO solvent is added, followed by adding 15 μL of BTK enzyme mix in 1× kinase buffer (with a final concentration of 0.25 nM). The assay is incubated for 30 minutes before being stopped with […] of a 50 mM EDTA solution. Aliquots (5 μL) of the kinase reaction are transferred to a low volume white 384 well plate (Coming 3674), and […] of a 2× detection buffer (Invitrogen PV3574, with 4 nM Tb-PY20 antibody, Invitrogen PV3552) is added. The plate is covered and incubated for 45 minutes at room temperature. Time resolved fluorescence (TRF) on Molecular Devices M5 (332 nm excitation; 488 nm emission; 518 nm fluorescein emission) is measured.

[2] = target: T1, BTK; test: In Vitro PD Assay in Human Whole Blood (pBTK assay); type: cell-based; conditions: 37° C. for 30 min, 50% inhibition of ECL signal
Procedure: Human heparinized venous blood was purchased from Bioreclamation, Inc. or SeraCare Life Sciences and shipped overnight. Whole blood was aliquoted into 96-well plate and “spiked” with serial dilutions of test compound in DMSO or with DMSO without drug. The final concentration of DMSO in all wells was 0.1%. The plate was incubated at 37° C. for 30 min. Lysis buffer containing protease and phosphatase inhibitors was added to the drug-containing samples and one of the DMSO-only samples (+PPi, high control), while lysis buffer containing protease inhibitors was added to the other DMSO-only samples (−PPi, low control). All of the lysed whole blood samples were subjected to the total BTK capture and phosphotyrosine detection method described in US20160311802, incorporated herein by reference.

T1 sequence (Q06187 whole entry): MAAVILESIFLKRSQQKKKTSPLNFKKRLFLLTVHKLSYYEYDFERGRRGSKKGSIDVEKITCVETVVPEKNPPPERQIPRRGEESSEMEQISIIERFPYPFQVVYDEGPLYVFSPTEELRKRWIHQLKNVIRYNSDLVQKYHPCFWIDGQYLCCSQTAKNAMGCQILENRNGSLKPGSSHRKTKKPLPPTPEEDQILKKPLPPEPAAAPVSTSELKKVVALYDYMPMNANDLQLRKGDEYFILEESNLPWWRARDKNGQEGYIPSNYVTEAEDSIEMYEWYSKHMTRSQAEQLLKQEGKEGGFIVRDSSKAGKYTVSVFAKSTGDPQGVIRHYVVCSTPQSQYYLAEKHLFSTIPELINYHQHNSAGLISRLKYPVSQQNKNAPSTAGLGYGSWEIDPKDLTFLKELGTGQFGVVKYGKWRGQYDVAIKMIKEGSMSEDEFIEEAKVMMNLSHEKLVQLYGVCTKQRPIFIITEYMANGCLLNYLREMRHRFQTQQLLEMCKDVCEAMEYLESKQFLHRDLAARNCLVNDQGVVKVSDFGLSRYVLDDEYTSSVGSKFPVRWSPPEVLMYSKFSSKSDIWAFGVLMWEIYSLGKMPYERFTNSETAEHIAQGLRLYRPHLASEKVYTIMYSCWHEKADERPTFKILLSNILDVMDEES

Row | Compound | IC50 [1] [nM] | IC50 [2] [nM]
1 | CC(C)(C)c1noc(C(=O)N[C@@H]2CCCCc3cc(-c4ccnc(NC(=O)[C@@H]5[C@@H]6COC[C@@H]65)c4)ccc32)n1 [Compound 46, N-((R)-2-(2-((1R,5S,6s)-3-oxabicyclo[3.1.0]hexane-6-carboxamido)pyridin-4-yl)-6,7,8,9-tetrahydro-5H-benzo[7]annulen-5-yl)-3-(tert-butyl)-1,2,4-oxadiazole-5-carboxamide] | ≤ 1 | 500 to 10000
2 | Cc1cc(-c2ccnc(NC(=O)C3CC3(C)C)c2)ccc1CNC(=O)c1noc(C(C)(C)C)n1 (stereo not shown) [Compound 48, 5-(tert-butyl)-N-(4-(2-(2,2-dimethylcyclopropane-1-carboxamido)pyridin-4-yl)-2-methylbenzyl)-1,2,4-oxadiazole-3-carboxamide] | 1 to 10 | > 10000
3 | Cc1cc(-c2ccnc(NC(=O)C3CC3(F)F)c2)ccc1CNC(=O)c1noc(C(C)(C)C)n1 (stereo not shown) [Compound 49, 5-(tert-butyl)-N-(4-(2-(2,2-difluorocyclopropane-1-carboxamido)pyridin-4-yl)-2-methylbenzyl)-1,2,4-oxadiazole-3-carboxamide] | ≤ 1 | 500 to 10000
4 | CC(C)(C)c1noc(C(=O)N[C@@H]2CCCCc3cc(-c4ccnc(NC(=O)[C@@H]5C[C@H]5C#N)c4)ccc32)n1 [Compound 51, 3-(tert-butyl)-N-((R)-2-(2-((1R,2R)-2-cyanocyclopropane-1-carboxamido)pyridin-4-yl)-6,7,8,9-tetrahydro-5H-benzo[7]annulen-5-yl)-1,2,4-oxadiazole-5-carboxamide] | ≤ 1 | 100 to 500
5 | CC(C)(C)c1noc(C(=O)N[C@@H]2CCCCc3cc(-c4ccnc(NC(=O)[C@@H]5C[C@H]5C(F)(F)F)c4)ccc32)n1 [Compound 52, 3-(tert-butyl)-N-((R)-2-(2-((1R,2R)-2-(trifluoromethyl)cyclo-propane-1-carboxamido)pyridin-4-yl)-6,7,8,9-tetrahydro-5H-benzo[7]annulen-5-yl)-1,2,4-oxadiazole-5-carboxamide] | ≤ 1 | 500 to 10000
6 | CC(C)(C)c1nc(C(=O)N[C@H]2CCCOc3cc(-c4ccnc(NC(=O)C5CC5)c4)ccc32)no1 [Compound 53, (S)-5-(tert-butyl)-N-(8-(2-(cyclopropanecarboxamido)pyridin-4-yl)-2,3,4,5-tetrahydrobenzo[b]oxepin-5-yl)-1,2,4-oxadiazole-3-carboxamide] | 10 to 1000 | > 10000
7 | CC(C)(C)c1nc(C(=O)N[C@@H]2CCCOc3cc(-c4ccnc(NC(=O)C5CC5)c4)ccc32)no1 [Compound 54, (R)-5-(tert-butyl)-N-(8-(2-(cyclopropanecarboxamido)pyridin-4-yl)-2,3,4,5-tetrahydrobenzo[b]oxepin-5-yl)-1,2,4-oxadiazole-3-carboxamide] | ≤ 1 | 100 to 500
8 | CC(C)(C)c1noc(C(=O)NC2CCCOc3cc(-c4ccnc(NC(=O)C5CC5)c4)ccc32)n1 (stereo not shown) [Compound 55, 3-(tert-butyl)-N-(8-(2-(cyclopropanecarboxamido)pyridin-4-yl)-2,3,4,5-tetrahydrobenzo[b]oxepin-5-yl)-1,2,4-oxadiazole-5-carboxamide] | ≤ 1 | 500 to 10000
9 | CC(C)c1cc(-c2ccnc(NC(=O)C3CC3)c2)ccc1CNC(=O)c1noc(C(C)(C)C)n1 [Compound 56, 5-(tert-butyl)-N-(4-(2-(cyclopropanecarboxamido)pyridin-4-yl)-2-isopropylbenzyl)-1,2,4-oxadiazole-3-carboxamide] | 1 to 10 | > 10000
10 | Cc1c(CNC(=O)c2noc(C(C)(C)C)n2)ccc(-c2cc(NC(=O)C3CC3)ncc2F)c1F [Compound 57, 5-(tert-butyl)-N-(4-(2-(cyclopropanecarboxamido)-5-fluoropyridin-4-yl)-3-fluoro-2-methylbenzyl)-1,2,4-oxadiazole-3-carboxamide] | ≤ 1 | 500 to 10000
11 | CC(C)(C)c1noc(C(=O)N[C@@H]2CCCCc3cc(-c4ccnc(NC(=O)C5CC5(F)F)c4)ccc32)n1 (stereo partly drawn) [Compound 58, 3-(tert-butyl)-N-((5R)-2-(2-(2,2-difluorocyclopropane-1-carboxamido)pyridin-4-yl)-6,7,8,9-tetrahydro-5H-benzo[7]annulen-5-yl)-1,2,4-oxadiazole-5-carboxamide] | ≤ 1 | 500 to 10000
12 | CC1(c2nc(C(=O)NCc3ccc(-c4ccnc(NC(=O)C5CC5)c4)c(F)c3Cl)no2)CC1 [Compound 59, N-(2-chloro-4-(2-(cyclopropanecarboxamido)pyridin-4-yl)-3-fluorobenzyl)-5-(1-methylcyclopropyl)-1,2,4-oxadiazole-3-carboxamide] | ≤ 1 | 500 to 10000
13 | Cc1c(CNC(=O)c2noc(C(C)(C)C)n2)cc(F)c(-c2ccnc(NC(=O)C3CC3)c2)c1F [Compound 61, 5-(tert-butyl)-N-(4-(2-(cyclopropanecarboxamido)pyridin-4-yl)-3,5-difluoro-2-methylbenzyl)-1,2,4-oxadiazole-3-carboxamide] | ≤ 1 | 500 to 10000
14 | CC(C)(C)c1nc(C(=O)NC2CCCOc3cc(-c4ccnc(NC(=O)C5CC5)c4)ccc32)no1 (stereo not shown) [Compound 65, 5-(tert-butyl)-N-(8-(2-(cyclopropanecarboxamido)pyridin-4-yl)-2,3,4,5-tetrahydrobenzo[b]oxepin-5-yl)-1,2,4-oxadiazole-3-carboxamide] | ≤ 1 | 100 to 500
15 | CC(C)(C)c1nc(C(=O)N[C@@H]2CCCCc3cc(-c4ccnc(NC(=O)C5CC5)c4)ccc32)no1 [Compound 67, (R)-5-(tert-butyl)-N-(2-(2-(cyclopropanecarboxamido)pyridin-4-yl)-6,7,8,9-tetrahydro-5H-benzo[7]annulen-5-yl)-1,2,4-oxadiazole-3-carboxamide] | ≤ 1 | ≤ 100
16 | CC(C)(C)c1nc(C(=O)N[C@@H]2CCCCc3cc(-c4ccnc(NC(=O)C5CC5)c4)ccc32)co1 [Compound 68, (R)-2-(tert-butyl)-N-(2-(2-(cyclopropanecarboxamido)pyridin-4-yl)-6,7,8,9-tetrahydro-5H-benzo[7]annulen-5-yl)oxazole-4-carboxamide] | ≤ 1 | 500 to 10000
17 | CC(C)(C)c1noc(C(=O)NCc2ccc(-c3ccnc(NC(=O)C4CC4)c3)c(F)c2C(F)(F)F)n1 [Compound 69, 3-(tert-butyl)-N-(4-(2-(cyclopropanecarboxamido)pyridin-4-yl)-3-fluoro-2-(trifluoromethyl)benzyl)-1,2,4-oxadiazole-5-carboxamide] | ≤ 1 | 100 to 500
18 | C[C@@H](NC(=O)c1nc(C(C)(C)C)no1)c1cc(F)c(-c2ccnc(NC(=O)C3CC3)c2)cc1Cl [Compound 70, (R)-3-(tert-butyl)-N-(1-(2-chloro-4-(2-(cyclopropanecarboxamido)pyridin-4-yl)-5-fluorophenyl)ethyl)-1,2,4-oxadiazole-5-carboxamide] | ≤ 1 | 500 to 10000
19 | Cc1c([C@@H](C)NC(=O)c2noc(C(C)(C)C)n2)ccc(-c2ccnc(NC(=O)C3CC3)c2)c1F [Compound 71, (R)-5-(tert-butyl)-N-(1-(4-(2-(cyclopropanecarboxamido)pyridin-4-yl)-3-fluoro-2-methyphenyl)ethyl)-1,2,4-oxadiazole-3-carboxamide] | ≤ 1 | 500 to 10000
20 | CC(C)(C)c1nc(C(=O)NCc2ccc(-c3ccnc(NC(=O)C4CC4)c3)cc2C(C)(C)C)no1 [Compound 72] | 1 to 10 | > 10000
21 | CCc1cc(-c2ccnc(NC(=O)C3CC3)c2)ccc1CNC(=O)c1noc(C(C)(C)C)n1 [Compound 73, 5-(tert-butyl)-N-(4-(2-(cyclopropanecarboxamido)pyridin-4-yl)-2-ethylbenzyl)-1,2,4-oxadiazole-3-carboxamide] | ≤ 1 | 500 to 10000
22 | C[C@@H](NC(=O)c1noc(C(C)(C)C)n1)c1cc(F)c(-c2ccnc(NC(=O)C3CC3)c2)cc1Cl [Compound 76, (R)-5-(tert-butyl)-N-(1-(2-chloro-4-(2-(cyclopropanecarboxamido)pyridin-4-yl)-5-fluorophenyl)ethyl)-1,2,4-oxadiazole-3-carboxamide] | ≤ 1 | 500 to 10000
23 | CC(C)(C)c1nc(C(=O)NCc2ccc(-c3ccnc(NC(=O)C4CC4)c3)cc2C2CC2)no1 [Compound 77, 5-(tert-butyl)-N-(4-(2-(cyclopropanecarboxamido)pyridin-4-yl)-2-cyclopropylbenzyl)-1,2,4-oxadiazole-3-carboxamide] | ≤ 1 | 100 to 500
